In patent US20250129069A1, “TRIAZOLO WRN INHIBITORS” (Nimbus Wadjet, Inc., priority 2023, published 2025):

Legend:
[1] = system: p21 induction in HCT 116 cells; assay: p21 induction in cells (In-Cell Western, p21/GAPDH ratio); type: cell-based; details: Homo sapiens, 24 h compound incubation, read-out: p21_EC50
In short: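 HCT 116 cells treated 24 h at 37° C with 11-point, 2-fold dilutions typically from 10 μM, in duplicate. Fixed cells co-stained for p21 (800 nm) and GAPDH (700 nm) by In-Cell Western. p21/GAPDH ratio normalised between DMSO and reference WRN inhibitor controls, and EC50 obtained by nonlinear regression.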

[2] = biological target: human Werner helicase (WRN, amino acids 517-1235 with L1074F point mutation) (Homo sapiens (Human), UniProt Q14191, L1074F); assay: WRN (BV08) ADP-Glo assay; type: biochemical; details: human WRN (aa 517-1235, L1074F), read-out: ADP-Glo_hWRN_IC50
In short: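 Untagged WRN 517-1235 (L1074F), Sf9/baculovirus-expressed, 0.15 nM, preincubated 15 min with compound, then 5 μM ATP and 0.1 nM annealed DNA duplex added; 60 min at 25 °C in Bicine pH 7.5, 1 mM MgCl2, 1% DMSO. ADP-Glo luminescence; % inhibition vs DMSO and 20 μM NSC-617145 controls, four-parameter IC50 fit.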

human Werner helicase (WRN, amino acids 517-1235 with L1074F point mutation), sequence (Q14191 other isoform, or with tags, fused parts or gaps L1074F (already in the parent)): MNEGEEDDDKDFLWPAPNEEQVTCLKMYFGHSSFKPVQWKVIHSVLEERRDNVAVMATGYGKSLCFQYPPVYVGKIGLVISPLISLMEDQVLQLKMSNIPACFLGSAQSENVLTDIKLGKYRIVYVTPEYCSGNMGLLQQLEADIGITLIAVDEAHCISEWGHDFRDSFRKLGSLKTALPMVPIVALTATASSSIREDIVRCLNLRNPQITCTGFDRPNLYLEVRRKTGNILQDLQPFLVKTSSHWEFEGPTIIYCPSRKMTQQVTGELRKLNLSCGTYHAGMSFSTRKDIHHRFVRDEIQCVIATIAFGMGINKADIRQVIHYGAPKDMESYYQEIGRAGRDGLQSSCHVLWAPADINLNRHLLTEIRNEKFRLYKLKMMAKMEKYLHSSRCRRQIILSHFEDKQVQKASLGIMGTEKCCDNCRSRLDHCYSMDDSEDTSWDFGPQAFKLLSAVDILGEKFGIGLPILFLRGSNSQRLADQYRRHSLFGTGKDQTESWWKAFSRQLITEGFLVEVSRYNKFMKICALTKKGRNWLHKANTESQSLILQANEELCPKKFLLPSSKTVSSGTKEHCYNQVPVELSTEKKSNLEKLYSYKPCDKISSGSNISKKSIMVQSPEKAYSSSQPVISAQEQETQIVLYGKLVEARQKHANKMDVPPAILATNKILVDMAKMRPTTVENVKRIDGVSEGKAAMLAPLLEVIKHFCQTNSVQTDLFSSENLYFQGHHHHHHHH

EC50 [1] | IC50 [2] | Compound
≤ 500 nM | 5 to 50 nM | CCc1c(N2CCN(C(=O)c3cccc4ncoc34)[C@H]3CC[C@@H]32)c(=O)c2nn(C3=CCOCC3)nc2n1CC(=O)Nc1ccc(C(F)(F)F)cc1Cl [Compound I-115, 2-{6-[(1S,6S)-5-(1,3-benzoxazole-7-carbonyl)-2,5-diazabicyclo[4.2.0]octan-2-yl]-2-(3,6-dihydro-2H-pyran-4-yl)-5-ethyl-7-oxo-2H,4H,7H-[1,2,3]triazolo[4,5-b]pyridin-4-yl}-N-[2-chloro-4-(trifluoromethyl)phenyl]acetamide]
> 5000 nM | 50 to 100 nM | CCc1c(N2CCN(C(=O)c3c(OC)ncc(C)c3O)CC2)c(=O)c2nn(-c3ccnc(OC)c3)nc2n1CC(=O)NC12CC(C3CCOC3)(C1)C2 (stereo not shown) [Compound I-123, 2-{5-ethyl-6-[4-(4-hydroxy-2-methoxy-5-methylpyridine-3-carbonyl)piperazin-1-yl]-2-(2-methoxypyridin-4-yl)-7-oxo-2H,4H,7H-[1,2,3]triazolo[4,5-b]pyridin-4-yl}-N-[3-(oxolan-3-yl)bicyclo[1.1.1]pentan-1-yl]acetamide]
> 5000 nM | 5 to 50 nM | CCc1c(N2CCN(C(=O)c3ncnc(C)c3O)[C@H]3CC[C@@H]32)c(=O)c2nn(-c3ncccc3F)nc2n1CC(=O)NC12CC(C(C)C)(C1)C2 [Compound I-163, 2-[5-ethyl-2-(3-fluoropyridin-2-yl)-6-[(1S,6S)-5-(5-hydroxy-6-methylpyrimidine-4-carbonyl)-2,5-diazabicyclo[4.2.0]octan-2-yl]-7-oxo-2H,4H,7H-[1,2,3]triazolo[4,5-b]pyridin-4-yl]-N-[3-(propan-2-yl)bicyclo[1.1.1]pentan-1-yl]acetamide]
≤ 500 nM | ≤ 5 nM | CCc1c(N2CCN(C(=O)c3ncnc(C)c3O)CC2)c(=O)c2nn(-c3ccn(C4CC4)n3)nc2n1CC(=O)Nc1ccc(C(F)(F)F)cc1Cl [Compound I-8, N-(2-chloro-4-(trifluoromethyl)phenyl)-2-(2-(1-cyclopropyl-1H-pyrazol-3-yl)-5-ethyl-6-(4-(5-hydroxy-6-methylpyrimidine-4-carbonyl)piperazin-1-yl)-7-oxo-2,7-dihydro-4H-[1,2,3]triazolo[4,5-b]pyridin-4-yl)acetamide]
≤ 500 nM | 5 to 50 nM | CCc1c(N2CCN(C(=O)c3ncnc(C)c3O)[C@H]3CC[C@@H]32)c(=O)c2nn(-c3cnn(C4CC4)c3)nc2n1CC(=O)NC12CC(C3CC3)(C1)C2 [Compound I-46, 2-[2-(1-cyclopropyl-1H-pyrazol-4-yl)-5-ethyl-6-[(1S,6S)-5-(5-hydroxy-6-methylpyrimidine-4-carbonyl)-2,5-diazabicyclo[4.2.0]octan-2-yl]-7-oxo-2H,4H,7H-[1,2,3]triazolo[4,5-b]pyridin-4-yl]-N-{3-cyclopropylbicyclo[1.1.1]pentan-1-yl}acetamide]
500 to 2000 nM | 5 to 50 nM | CCc1c(N2CCN(C(=O)c3cc(N4CCC(C)(O)C4)cnc3OC)[C@H]3CC[C@@H]32)c(=O)c2nn(C3=CCOCC3)nc2n1CC(=O)NC12CC(C3CC3)(C1)C2 (stereo partly drawn) [Compound I-186, N-{3-cyclopropylbicyclo[1.1.1]pentan-1-yl}-2-[2-(3,6-dihydro-2H-pyran-4-yl)-5-ethyl-6-[(1S,6S)-5-[5-(3-hydroxy-3-methylpyrrolidin-1-yl)-2-methoxypyridine-3-carbonyl]-2,5-diazabicyclo[4.2.0]octan-2-yl]-7-oxo-2H,4H,7H-[1,2,3]triazolo[4,5-b]pyridin-4-yl]acetamide]
≤ 500 nM | 5 to 50 nM | CCc1c(N2CCN(C(=O)c3ncnc(C)c3O)CC2)c(=O)c2nn(C3=CCOCC3)nc2n1CC(=O)Nc1ccc(C(F)(F)F)cc1Cl [Compound I-144, N-[2-chloro-4-(trifluoromethyl)phenyl]-2-[2-(3,6-dihydro-2H-pyran-4-yl)-5-ethyl-6-[4-(5-hydroxy-6-methylpyrimidine-4-carbonyl)piperazin-1-yl]-7-oxo-2H,4H,7H-[1,2,3]triazolo[4,5-b]pyridin-4-yl]acetamide]
500 to 2000 nM | 5 to 50 nM | CCc1c(N2CCN(C(=O)c3c(OC)ncc([C@H]4CCOC4)c3O)CC2)c(=O)c2nn(-c3ccnc(OC)c3)nc2n1CC(=O)NC12CC(C(C)C)(C1)C2 (single isomer, unassigned) [Compound I-43]
2000 to 5000 nM | 5 to 50 nM | CCc1c([C@]23CCN(C(=O)c4ncnc(C)c4O)C[C@H]2C3)c(=O)c2nn(-c3ccnc(OC)c3)nc2n1CC(=O)NC12CC(C(C)C)(C1)C2 (relative stereo) [Compound I-41, rel-2-{5-ethyl-6-[(1R,6S)-3-(5-hydroxy-6-methylpyrimidine-4-carbonyl)-3-azabicyclo[4.1.0]heptan-6-yl]-2-(2-methoxypyridin-4-yl)-7-oxo-2H,4H,7H-[1,2,3]triazolo[4,5-b]pyridin-4-yl}-N-[3-(propan-2-yl)bicyclo[1.1.1]pentan-1-yl]acetamide]
≤ 500 nM | 5 to 50 nM | CCc1c(N2CCN(C(=O)c3ncnc(C)c3O)[C@H]3CC[C@@H]32)c(=O)c2nn(-c3ccn(C)n3)nc2n1CC(=O)NC12CC(C(C)C)(C1)C2 [Compound I-187, 2-{5-ethyl-6-[(1S,6S)-5-(5-hydroxy-6-methylpyrimidine-4-carbonyl)-2,5-diazabicyclo[4.2.0]octan-2-yl]-2-(1-methyl-1H-pyrazol-3-yl)-7-oxo-2H,4H,7H-[1,2,3]triazolo[4,5-b]pyridin-4-yl}-N-[3-(propan-2-yl)bicyclo[1.1.1]pentan-1-yl]acetamide]
≤ 500 nM | 5 to 50 nM | CCc1c(N2CCN(C(=O)c3c(OC(F)F)ncc(C)c3O)CC2)c(=O)c2nn(-c3ccnc(OC)c3)nc2n1CC(=O)NC12CC(C(C)C)(C1)C2 [Compound I-56, 2-(6-{4-[2-(difluoromethoxy)-4-hydroxy-5-methylpyridine-3-carbonyl]piperazin-1-yl}-5-ethyl-2-(2-methoxypyridin-4-yl)-7-oxo-2H,4H,7H-[1,2,3]triazolo[4,5-b]pyridin-4-yl)-N-[3-(propan-2-yl)bicyclo[1.1.1]pentan-1-yl]acetamide]
≤ 500 nM | 5 to 50 nM | CCc1c(N2CCN(C(=O)c3ncnc(C)c3O)CC2)c(=O)c2nn(-c3ccnc(OC)c3)nc2n1CC(=O)NC12CC(C3CC3)(C1)C2 [Compound I-135, N-{3-cyclopropylbicyclo[1.1.1]pentan-1-yl}-2-{5-ethyl-6-[4-(5-hydroxy-6-methylpyrimidine-4-carbonyl)piperazin-1-yl]-2-(2-methoxypyridin-4-yl)-7-ox0-2H,4H,7H-[1,2,3]triazolo[4,5-b]pyridin-4-yl}acetamide]
≤ 500 nM | ≤ 5 nM | CCc1c(N2CCN(C(=O)c3ncnc(C)c3O)CC2)c(=O)c2nn(-c3ccnc(OC)c3)nc2n1CC(=O)Nc1ccc(C(F)(F)F)cc1Cl [Compound I-149, N-[2-chloro-4-(trifluoromethyl)phenyl]-2-{5-ethyl-6-[4-(5-hydroxy-6-methylpyrimidine-4-carbonyl)piperazin-1-yl]-2-(2-methoxypyridin-4-yl)-7-oxo-2H,4H,7H-[1,2,3]triazolo[4,5-b]pyridin-4-yl}acetamide]
≤ 500 nM | 5 to 50 nM | CCc1c(N2CCN(C(=O)c3ncnc(C)c3O)CC2)c(=O)c2nn(-c3cnn(C4CC4)c3)nc2n1CC(=O)Nc1ccc(C(F)(F)F)cc1Cl [Compound I-112, N-[2-chloro-4-(trifluoromethyl)phenyl]-2-[2-(1-cyclopropyl-1H-pyrazol-4-yl)-5-ethyl-6-[4-(5-hydroxy-6-methylpyrimidine-4-carbonyl)piperazin-1-yl]-7-oxo-2H,4H,7H-[1,2,3]triazolo[4,5-b]pyridin-4-yl]acetamide]
500 to 2000 nM | 5 to 50 nM | CCc1c(N2CCN(C(=O)c3ncnc(C)c3O)CC2)c(=O)c2nn(-c3ccncc3)nc2n1CC(=O)NC12CC(C(C)C)(C1)C2 [Compound I-134, 2-{5-ethyl-6-[4-(5-hydroxy-6-methylpyrimidine-4-carbonyl)piperazin-1-yl]-7-oxo-2-(pyridin-4-yl)-2H,4H,7H-[1,2,3]triazolo[4,5-b]pyridin-4-yl}-N-[3-(propan-2-yl)bicyclo[1.1.1]pentan-1-yl]acetamide]
≤ 500 nM | 5 to 50 nM | CCc1c(N2CCN(C(=O)c3cccc4ncoc34)[C@H]3CC[C@@H]32)c(=O)c2nn(-c3ccnc(OC)c3)nc2n1CC(=O)Nc1ccc(C(F)(F)F)cc1Cl [Compound I-107, 2-{6-[(1S,6S)-5-(1,3-benzoxazole-7-carbonyl)-2,5-diazabicyclo[4.2.0]octan-2-yl]-5-ethyl-2-(2-methoxypyridin-4-yl)-7-oxo-2H,4H,7H-[1,2,3]triazolo[4,5-b]pyridin-4-yl}-N-[2-chloro-4-(trifluoromethyl)phenyl]acetamide]
500 to 2000 nM | 5 to 50 nM | CCc1c(N2CCN(C(=O)c3c(OC)ncc(C)c3O)CC2)c(=O)c2nn(-c3ccnc(OC)c3)nc2n1CC(=O)NC12CC(C(C)(F)F)(C1)C2 [Compound I-122, N-[3-(1,1-difluoroethyl)bicyclo[1.1.1]pentan-1-yl]-2-{5-ethyl-6-[4-(4-hydroxy-2-methoxy-5-methylpyridine-3-carbonyl)piperazin-1-yl]-2-(2-methoxypyridin-4-yl)-7-oxo-2H,4H,7H-[1,2,3]triazolo[4,5-b]pyridin-4-yl}acetamide]
